Test results: PubChem BioAssay (NCI)
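Following 48 hours of exposure in 96-well plates, responses at five concentrations were used to interpolate endpoints linearly. Abbreviation: GI50, concentration required for 50% inhibition of growth. TGI is the concentration that stops growth completely.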

Assays:
Assay in all cases: NCI anticancer screen, dose series, 48 h
CCRF-CEM leukemia = test system: CCRF-CEM leukemia
SF-295 CNS = test system: SF-295 CNS
MALME-3M melanoma = test system: MALME-3M melanoma
SF-268 CNS = test system: SF-268 CNS
TK-10 renal = test system: TK-10 renal
SF-539 CNS = test system: SF-539 CNS
A549 NSCLC = test system: A549 NSCLC
MCF7 breast = test system: MCF7 breast
NCI-H460 lung = test system: NCI-H460 lung
HCT-15 colon = test system: HCT-15 colon
MDA-MB-231 breast = test system: MDA-MB-231 breast
BT-549 breast = test system: BT-549 breast
RPMI-8226 leukemia = test system: RPMI-8226 leukemia
HOP-62 NSCLC = test system: HOP-62 NSCLC
U251 CNS = test system: U251 CNS
IGROV1 ovarian = test system: IGROV1 ovarian
A498 renal = test system: A498 renal
OVCAR-3 ovarian = test system: OVCAR-3 ovarian
MDA-MB-435 = test system: MDA-MB-435
T-47D breast = test system: T-47D breast
HL-60(TB) leukemia = test system: HL-60(TB) leukemia
SNB-19 CNS = test system: SNB-19 CNS
HT29 colon = test system: HT29 colon
ACHN renal = test system: ACHN renal
SW-620 colon = test system: SW-620 colon
SNB-75 CNS = test system: SNB-75 CNS
SN12C renal = test system: SN12C renal
MOLT-4 leukemia = test system: MOLT-4 leukemia
CAKI-1 renal = test system: CAKI-1 renal
HCT-116 colon = test system: HCT-116 colon
MDA-MB-468 breast = test system: MDA-MB-468 breast
UACC-62 melanoma = test system: UACC-62 melanoma
SK-OV-3 ovarian = test system: SK-OV-3 ovarian
COLO 205 colon = test system: COLO 205 colon
OVCAR-5 ovarian = test system: OVCAR-5 ovarian
EKVX NSCLC = test system: EKVX NSCLC
K-562 leukemia = test system: K-562 leukemia
NCI-H522 lung = test system: NCI-H522 lung
NCI-H226 lung = test system: NCI-H226 lung
OVCAR-4 ovarian = test system: OVCAR-4 ovarian
PC-3 prostate = test system: PC-3 prostate
HS 578T breast = test system: HS 578T breast
SK-MEL-2 melanoma = test system: SK-MEL-2 melanoma
KM12 colon = test system: KM12 colon
NCI-H23 lung = test system: NCI-H23 lung
DU-145 prostate = test system: DU-145 prostate
SK-MEL-28 melanoma = test system: SK-MEL-28 melanoma
SR leukemia = test system: SR leukemia
786-0 renal = test system: 786-0 renal
UACC-257 melanoma = test system: UACC-257 melanoma
OVCAR-8 ovarian = test system: OVCAR-8 ovarian
HCC-2998 colon = test system: HCC-2998 colon
UO-31 renal = test system: UO-31 renal
NCI/ADR-RES ovarian = test system: NCI/ADR-RES ovarian
M14 melanoma = test system: M14 melanoma
HOP-92 NSCLC = test system: HOP-92 NSCLC
SK-MEL-5 melanoma = test system: SK-MEL-5 melanoma
LOX IMVI melanoma = test system: LOX IMVI melanoma
RXF 393 renal = test system: RXF 393 renal

With Oc1ccc(Cl)c(Nc2ncnc3c2cnn3CC(Cl)c2ccc(Br)cc2)c1 (stereo not drawn) the GI50 (CCRF-CEM leukemia) was 13.6 µM, the TGI (CCRF-CEM leukemia) was 60.1 µM and the GI50 (SF-295 CNS) was 6.2 µM. The TGI (SF-295 CNS) was 27.3 µM, the GI50 (MALME-3M melanoma) was 12.3 µM and the TGI (MALME-3M melanoma) was 25.1 µM. For the same molecule, the GI50 (SF-268 CNS) was 6.07 µM, the TGI (SF-268 CNS) was 33.5 µM and the GI50 (TK-10 renal) was 13.9 µM. For the same molecule, the TGI (TK-10 renal) was 29 µM, the GI50 (SF-539 CNS) was 4.64 µM and the TGI (SF-539 CNS) was 18.1 µM. It also gave a GI50 (A549 NSCLC) of 12.1 µM, a TGI (A549 NSCLC) of 37.3 µM and a GI50 (MCF7 breast) of 11.1 µM. The TGI (MCF7 breast) was 26.2 µM, the GI50 (NCI-H460 lung) was 16.7 µM and the TGI (NCI-H460 lung) was 36.5 µM. For the same molecule, the GI50 (HCT-15 colon) was 4.57 µM, the TGI (HCT-15 colon) was 19.4 µM and the GI50 (MDA-MB-231 breast) was 7.29 µM. It also gave a TGI (MDA-MB-231 breast) of 21 µM, a GI50 (BT-549 breast) of 12.7 µM and a TGI (BT-549 breast) of 25.4 µM. It also gave a GI50 (RPMI-8226 leukemia) of 17 µM, a TGI (RPMI-8226 leukemia) of 93.8 µM and a GI50 (HOP-62 NSCLC) of 11.7 µM. It also gave a TGI (HOP-62 NSCLC) of 30.5 µM, a GI50 (U251 CNS) of 11.3 µM and a TGI (U251 CNS) of 25.5 µM. The GI50 (IGROV1 ovarian) was 2.39 µM, the TGI (IGROV1 ovarian) was 8.31 µM and the GI50 (A498 renal) was 16.2 µM. It also gave a TGI (A498 renal) of 30.7 µM, a GI50 (OVCAR-3 ovarian) of 7.99 µM and a TGI (OVCAR-3 ovarian) of 38.8 µM. For the same molecule, the GI50 (MDA-MB-435) was 11.9 µM, the TGI (MDA-MB-435) was 26.8 µM and the GI50 (T-47D breast) was 4.48 µM. The TGI (T-47D breast) was 55.4 µM, the GI50 (HL-60(TB) leukemia) was 23.2 µM and the TGI (HL-60(TB) leukemia) was 62.2 µM. For the same molecule, the GI50 (SNB-19 CNS) was 12.4 µM, the TGI (SNB-19 CNS) was 36 µM and the GI50 (HT29 colon) was 13.9 µM. It also gave a TGI (HT29 colon) of 31.9 µM, a GI50 (ACHN renal) of 2.12 µM and a TGI (ACHN renal) of 15.3 µM. It also gave a GI50 (SW-620 colon) of 21.9 µM, a TGI (SW-620 colon) of 47.4 µM and a GI50 (SNB-75 CNS) of 1.03 µM. It also gave a TGI (SNB-75 CNS) of 5.58 µM, a GI50 (SN12C renal) of 3.79 µM and a TGI (SN12C renal) of 18.1 µM. It also gave a GI50 (MOLT-4 leukemia) of 6.75 µM, a TGI (MOLT-4 leukemia) of 37.7 µM and a GI50 (CAKI-1 renal) of 3.72 µM. For the same molecule, the TGI (CAKI-1 renal) was 28.6 µM, the GI50 (HCT-116 colon) was 7.89 µM and the TGI (HCT-116 colon) was 21.4 µM. It also gave a GI50 (MDA-MB-468 breast) of 3.35 µM, a TGI (MDA-MB-468 breast) of 16.3 µM and a GI50 (UACC-62 melanoma) of 12.6 µM. For the same molecule, the TGI (UACC-62 melanoma) was 25.2 µM, the GI50 (SK-OV-3 ovarian) was 7.63 µM and the TGI (SK-OV-3 ovarian) was 31.3 µM. The GI50 (COLO 205 colon) was 17.7 µM, the TGI (COLO 205 colon) was 38.7 µM and the GI50 (OVCAR-5 ovarian) was 10.3 µM. It also gave a TGI (OVCAR-5 ovarian) of 24.4 µM, a GI50 (EKVX NSCLC) of 11.9 µM and a TGI (EKVX NSCLC) of 34.6 µM. The GI50 (K-562 leukemia) was 0.0826 µM, the TGI (K-562 leukemia) was 12.9 µM and the GI50 (NCI-H522 lung) was 7.4 µM. For the same molecule, the TGI (NCI-H522 lung) was 27.8 µM, the GI50 (NCI-H226 lung) was 11.8 µM and the TGI (NCI-H226 lung) was 28.7 µM. For the same molecule, the GI50 (OVCAR-4 ovarian) was 13.1 µM, the TGI (OVCAR-4 ovarian) was 54.4 µM and the GI50 (PC-3 prostate) was 4.53 µM. It also gave a TGI (PC-3 prostate) of 35.4 µM, a GI50 (HS 578T breast) of 1.13 µM and a TGI (HS 578T breast) of 7.95 µM. It also gave a GI50 (SK-MEL-2 melanoma) of 17.5 µM, a TGI (SK-MEL-2 melanoma) of 34.3 µM and a GI50 (KM12 colon) of 19.3 µM. The TGI (KM12 colon) was 42.9 µM, the GI50 (NCI-H23 lung) was 12.6 µM and the TGI (NCI-H23 lung) was 26.3 µM. The GI50 (DU-145 prostate) was 10.6 µM, the TGI (DU-145 prostate) was 32 µM and the GI50 (SK-MEL-28 melanoma) was 14.9 µM. The TGI (SK-MEL-28 melanoma) was 28.9 µM, the GI50 (SR leukemia) was 6.67 µM and the TGI (SR leukemia) was 81.6 µM. The GI50 (786-0 renal) was 5.7 µM, the TGI (786-0 renal) was 23.3 µM and the GI50 (UACC-257 melanoma) was 13.8 µM. It also gave a TGI (UACC-257 melanoma) of 28.3 µM, a GI50 (OVCAR-8 ovarian) of 7.97 µM and a TGI (OVCAR-8 ovarian) of 25.9 µM. It also gave a GI50 (HCC-2998 colon) of 14.9 µM, a TGI (HCC-2998 colon) of 29.1 µM and a GI50 (UO-31 renal) of 2.34 µM. The TGI (UO-31 renal) was 17 µM, the GI50 (NCI/ADR-RES ovarian) was 7.47 µM and the TGI (NCI/ADR-RES ovarian) was 27.4 µM. For the same molecule, the GI50 (M14 melanoma) was 11.2 µM, the TGI (M14 melanoma) was 24.3 µM and the GI50 (HOP-92 NSCLC) was 2.34 µM. The TGI (HOP-92 NSCLC) was 12.4 µM, the GI50 (SK-MEL-5 melanoma) was 10.5 µM and the TGI (SK-MEL-5 melanoma) was 22.3 µM. It also gave a GI50 (LOX IMVI melanoma) of 2.09 µM, a TGI (LOX IMVI melanoma) of 11.8 µM and a GI50 (RXF 393 renal) of 0.766 µM. For the same molecule, the TGI (RXF 393 renal) was 7.17 µM.
